Test results: patent US20080131475A1, “Methods of Use of Dual Ppar Agonist Compounds and Drug Delivery Devices Containing Such Compounds” (priority 2005, published 2008)

Tests used:
[1] = drug release from coated stent pieces in PBS pH 7.4 or PEG/water; assay type: physicochemical; conditions: 2 cm coated stent pieces, PBS pH 7.4 or PEG 400/water 40/60 v/v, 37° C., solutions changed daily
Experimental: Four 2 cm pieces of coated stents as described above are placed into 100 mL of phosphate buffer solution (PBS) having a pH of 7.4. Another 4 pieces from each series are placed into 100 mL polyethylene glycol (PEG)/water solution (40/60 v/v, MW of PEG=400). The stent pieces are incubated at 37° C. in a shaker. The buffer and PEG solutions are changed daily and different assays are performed on the solution to determine the released (R)-1-{4-[5-methyl-2-(4-trifluoromethyl-phenyl)-oxazol-4-ylmethoxy]-benzenesulfonyl}-2,3-dihydro-1H-indole-2-carboxylic acid concentrations. Such assays can show a stable release of (R)-1-{4-[5-methyl-2-(4-trifluoromethyl-phenyl)-oxazol-4-ylmethoxy]-benzenesulfonyl}-2,3-dihydro-1H-indole-2-carboxylic acid from coated stents for more than 45 days. By the term “stable-release of (R)-1-{4-[5-methyl-2-(4-trifluoromethyl-phenyl)-oxazol-4-ylmethoxy]-benzenesulfonyl}-2,3-dihydro-1H-indole-2-carboxylic acid” is meant less than 10% of variation of the drug release. Controlled-release techniques used by a person skilled in the art allow an unexpected easy adaptation of the required drug release rate. […]

[2] = system: restenotic lesion formation and arterial stenosis in diabetic swine; experiment: diabetic swine model of restenosis; assay type: in vivo; conditions: streptozotocin-diabetic juvenile swine, procedure as in non-diabetic stent model
Experimental: (§1) The treatment and/or prevention of restenosis in vivo in diabetics and non-diabetics can be evaluated as follows: • 1. The beneficial effects of a compound of the present invention on restenosis are ascertained in a swine model of restenosis. Stainless steel balloon-expandable tubular stents, 18 mm long, are coated with a thin layer of a polymer, i.e., poly-n-butyl methacrylate, containing […] of (R)-1-{4-[5-methyl-2-(4-trifluoromethyl-phenyl)-oxazol-4-ylmethoxy]-benzenesulfonyl}-2,3-dihydro-1H-indole-2-carboxylic acid (Compound A) per stent. Juvenile swine (25-35 kg) undergo placement of bare metal stents which elute Compound A in the left anterior descending, circumflex or right coronary artery. The guiding catheter is used as a reference to obtain a 1.2:1 to 1.4:1 stent-to-artery ratio compared with the baselinevessel diameter. […] At 7 days or 28 days, the animals are euthanized after completion of coronary angiography for quantitative analysis. • Immediately following euthanasia, the hearts are harvested, and the coronary arteries are perfusion-fixed with 10% buffered formalin at 60-80 mm Hg for 30 minutes via the aortic stump. […] Vessel wall expression of proliferating cell nuclear antigen (PCNA) (Santa Cruz Biotechnology), pRb (Pharmingen), monocyte chemotactic protein (MCP)-1 (R&D Systems) or interleukin (IL)-6 (R&D Systems) were evaluated by Western blot analysis. […]

[3] = system: restenotic lesion and arterial stenosis in stented coronary arteries; experiment: swine model of restenosis with coronary stents eluting Compound A; assay type: in vivo; conditions: juvenile swine, poly-n-butyl methacrylate coated stent containing 200 mg Compound A per stent, coronary artery, 7 or 28 days
Experimental: as §1

duration of stable release from coated stents (less than 10% of variation of the drug release) [1]: more than 45 days
Structure (SMILES): Cc1oc(-c2ccc(C(F)(F)F)cc2)nc1COc1ccc(S(=O)(=O)N2c3ccccc3C[C@@H]2C(=O)O)cc1 [Compound A, (R)-1-{4-[5-methyl-2-(4-trifluoromethyl-phenyl)-oxazol-4-ylmethoxy]-benzenesulfonyl}-2,3-dihydro-1H-indole-2-carboxylic acid]
extent of restenotic lesion formation and arterial stenosis [2]: reduction | extent of restenotic lesion and arterial stenosis [3]: marked reduction
